# From US8815935B2, “Inhibitors of protein prenyltransferases” (The Regents of the University of California, priority 2008, dated 2014)
# “Also recorded” adds a separate entry of the source.
# Key:
# [1] = tested on: MiaPaCa2; test: Cell cycle distribution by flow cytometry, MiaPaCa2; type: cell-based, human; details: 10 μM, 48 hours
# Procedure: (§1) Cell viability was determined by Cell Counting Kit-8 (CCK-8, Dojindo, Kumamoto, Japan) as described previously (31). Cell viability was calculated relative to the DMSO control. Cell cycle profile was analyzed by flow cytometry as described previously (32).
# [2] = tested on: Rap1 geranylgeranylation in NIH3T3 cells; test: Unprenylated Rap1 immunoblot in NIH3T3 cells; type: cell-based; details: 48 hours
# Procedure: The inhibition of GGTase-I catalyzed protein geranylgeranylation was assessed by examining the accumulation of unprenylated Rap1. To measure the level of unprenylated Rap1, cells were cultured in DMEM plus 10% (v/v) FBS overnight, and then DMSO or appropriate inhibitors were added. Incubation was continued for 48 hours. The cells were harvested and lysed in lysis buffer (20 mM Tris-HCl, pH 7.5, 150 mM NaCl, 1 mM EDTA, 1% NP-40 and 1× Protease Inhibitor Cocktail). Whole cell lysates of NIH3T3 cells were electrophoresed on a 12% SDS-PAGE, transferred to nitrocellulose membranes and immunoblotted with the antibody against unprenylated form of Rap1 (Santa Cruz Biotechnology catalog number sc-1482, goat), total-Rap1 (Santa Cruz: sc-65) or actin (Sigma: A4700). Actin was used as a loading control.
# [3] = tested on: BT474; test: BT474 cell growth inhibition; type: cell-based, human; details: Homo sapiens, BT-474, 72 h; 3 days, CCK-8, vs DMSO; read-out: IC50, BT474 (Breast)
# Procedure: (§2) In FIG. 9-24 in vitro IC50 values for the GGTase I activity are reported. In Tables 7-15 in cell GI50 values for the growth inhibition of a variety of cancer cell lines (e.g., Jurkat, K562, MDA-MB-231, BT474, MCF7, MiaPaCa2, Aspc-1, Panc-1, Capan-2, CFpac-1, and MCF10a) are reported.
# as §1
# [4] = tested on: SE-Mk2; test: SE-Mk2 cell growth inhibition; type: cell-based; details: Homo sapiens, SEMK2, 144 h; 6 days, CCK-8, vs DMSO; read-out: IC50, SE-Mk2 (Blood)
# Procedure: as §1
# [5] = tested on: MDA-MB-231; test: MDA-MB-231 cell growth inhibition; type: cell-based, human; details: Homo sapiens, MDA-MB-231, 72 h; 3 days, CCK-8, vs DMSO; read-out: IC50, MDA-MB-231 (Breast)
# Procedure: as §2, §1
# [6] = tested on: Jurkat cells; test: Jurkat cell growth inhibition; type: cell-based, human; details: Homo sapiens, Jurkat, 72 h; 3 days, CCK-8, vs DMSO; read-out: IC50, Jurkat (Blood)
# Procedure, shortened: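 Jurkat T-cell leukemia cells were exposed to compound for 72 h, with cell number counted and viability read by CCK-8 relative to the DMSO control. GI50 is the compound concentration giving 50% growth inhibition.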
# [7] = tested on: HPAC; test: HPAC cell growth inhibition; type: cell-based; details: Homo sapiens, 72 h, 3 days, CCK-8, vs DMSO, read-out: IC50, HPAC (Pancreas)
# Procedure: as §1
# [8] = tested on: Rab5b geranylgeranylation in NIH3T3 cells; test: Rab5b immunoblot and subcellular fractionation in NIH3T3 cells; type: cell-based; details: 48 hours
# Procedure: The inhibition of Rab geranylgeranylation in cells (FIG. 43) was examined according to (29). Briefly, whole cell lysates were subjected to 15% SDS-PAGE containing 4M urea followed by immunoblotting with the antibody against Rab5b (Santa Cruz: sc-598) or actin. Subcellular fractionations (FIG. 44) were performed as described by Gomes et al. (30). Briefly, cells were treated with P49-F6 for 48 hours. After osmotic lysis, cell debris were removed by centrifugation at 500×g for 10 min, and the supernatant was subjected to ultracentrifugation at 100,000×g for 60 min. The supernatant of ultracentrifugation was collected as a soluble fraction. The pellet was collected as a membrane fraction. These fractions were subjected to electrophoresis on 10% SDS-PAGE gels followed by immunoblotting with the antibody against Rab5b. RhoGDI (Santa Cruz: sc-360) and Na^+/K^+ ATPase (Sigma: A276) were used as markers for soluble and membrane fractions, respectively.
structure (smiles),measurement,setting,value
Cc1ccccc1S(=O)(=O)N1C(c2ccc(Cl)cc2)C(C(=O)NC(Cc2ccccc2)C(N)=O)=CC1C(C)(C)C (stereo not shown) [P61-A6],"Percent G2/M, MiaPaCa2",[1]; DMSO 14.12,10.81%
same,"Percent G0/G1, MiaPaCa2",[1]; DMSO 77.85,87.98%
same,appearance of the unprenylated (unprocessed) Rap1 band,[2],in a dose dependent manner; also recorded: inhibits Rap1 geranylgeranylation
same,appearance of the unprenylated Rap1 band at 2.5 μM,[2]; 2.5 μM,observed
same,IC50,[3],8.5 µM
same,IC50,[4],6.4 µM
same,IC50,[5],8.7 µM
same,IC50,[6],2.9 µM
same,IC50,[7],3.9 µM
same,inhibition of Rab5b geranylgeranylation (slow migrating unmodified Rab5b band),[8],did not inhibit geranylgeranylation of Rab5b
